In ChEMBL document CHEMBL4311992, “Discovery of 3-(((9H-purin-6-yl)amino)methyl)-4,6-dimethylpyridin-2(1H)-one derivatives as novel tubulin polymerization inhibitors for treatment of cancer” (Eur J Med Chem, 2019):
Calls of active or inactive are those of the source. The rule behind the calls is not given here.

Assays:
[1] = molecular target: Mitogen-activated protein kinase 14 (Homo sapiens) (UniProt Q16539); experiment: Inhibition of recombinant full-length human SAPK2a assessed as residual activity at 10 uM using myelin basic protein as substrate measured after 40 mins in presence of [gamma33P]ATP by scintillation counting method
[2] = test system: Epidermal growth factor receptor (Homo sapiens), P00533 [L858R]; experiment: Inhibition of recombinant human EGFR L858R mutant (696 to end residues) assessed as residual activity at 10 uM using poly(Glu, Tyr) 4:1 as substrate measured after 40 mins in presence of [gamma33P]ATP by scintillation counting method
[3] = molecular target: Casein kinase I isoform delta (Homo sapiens) (UniProt P48730); experiment: Inhibition of recombinant human CK1delta (1 to 294 residues) assessed as residual activity at 10 uM using KRRRALS(p)VASLPGL as substrate measured after 40 mins in presence of [gamma33P]ATP by scintillation counting method
[4] = test system: SW-620; experiment: Induction of apoptosis in human SW620 cells assessed as increase in Bax expression up to 200 nM measured after 48 hrs by Western blot analysis; type: functional, cell-based
[5] = molecular target: Serine/threonine-protein kinase mTOR (Homo sapiens) (UniProt P42345); experiment: Inhibition of recombinant full-length human mTOR assessed as residual activity at 10 uM measured after 40 mins in presence of [gamma33P]ATP by scintillation counting method
[6] = test system: HCT-116; experiment: Induction of apoptosis in human HCT116 cells assessed as viable cells at 25 nM measured after 48 hrs by Annexin V-FITC/propidium iodide staining-based flow cytometry (reference value: 94.5%); type: functional; settings: HCT-116, 48 h, read-out: Activity
[7] = organism: Homo sapiens; experiment: Inhibition of recombinant human BrSK2 S251I mutant (2 to end residues) assessed as residual activity at 10 uM using KKLNRTLSFAEPG as substrate measured after 40 mins in presence of [gamma33P]ATP by scintillation counting method
[8] = molecular target: CDC7/Cyclin B1 (Homo sapiens) (UniProt P14635+O00311); experiment: Inhibition of recombinant full-length human CDC7/cyclinB1 assessed as residual activity at 10 uM using Histone H1 as substrate measured after 120 mins in presence of [gamma33P]ATP by scintillation counting method; type: protein-complex assay
[9] = molecular target: Tyrosine-protein kinase ZAP-70 (Homo sapiens) (UniProt P43403); experiment: Inhibition of recombinant full-length human ZAP70 assessed as residual activity at 10 uM using poly(Glu, Tyr) 4:1 as substrate measured after 40 mins in presence of [gamma33P]ATP by scintillation counting method
[10] = molecular target: Rhodopsin kinase GRK1 (Homo sapiens) (UniProt Q15835); experiment: Inhibition of recombinant full-length human GRK1 assessed as residual activity at 10 uM using KKKKERLLDDRHDSGLDSMKDEE as substrate measured after 40 mins in presence of [gamma33P]ATP by scintillation counting method
[11] = molecular target: Serine/threonine-protein kinase MRCK gamma (Homo sapiens) (UniProt Q6DT37); experiment: Inhibition of recombinant human MRCKgamma assessed as residual activity at 10 uM using KKRNRTLTV as substrate measured after 40 mins in presence of [gamma33P]ATP by scintillation counting method
[12] = test system: MDA-MB-231; experiment: Antiproliferative activity against human MDA-MB-231 cells assessed as reduction in cell viability after 72 hrs by MTT assay; type: functional, cell-based; settings: MDA-MB-231, 72 h
[13] = molecular target: Tribbles homolog 2 (Homo sapiens) (UniProt Q92519); experiment: Inhibition of recombinant full-length human TRB2 assessed as residual activity at 10 uM using RRRFRPASPLRGPPK as substrate measured after 120 mins in presence of [gamma33P]ATP by scintillation counting method
[14] = test system: RAC-beta serine/threonine-protein kinase (Homo sapiens), P31751 [S474D]; experiment: Inhibition of recombinant full-length human PKBbeta S474D mutant (120 to end residues) assessed as residual activity at 10 uM using GRPRTSSFAEGKK as substrate measured after 40 mins in presence of [gamma33P]ATP by scintillation counting method
[15] = organism: Homo sapiens; experiment: Inhibition of human Ros V2262A mutant (1883 to end residues) using KKKSPGEYVNIEFG as substrate measured after 40 mins in presence of [gamma33P]ATP by scintillation counting method; set-up: scale not given: the % may be the effect or the level left
[16] = test system: HCT-116; experiment: Induction of apoptosis in human HCT116 cells assessed as increase in cleaved PARP expression up to 200 nM measured after 48 hrs by Western blot analysis; type: functional, cell-based
[17] = molecular target: Bone morphogenetic protein receptor type-1B (Homo sapiens) (UniProt O00238); experiment: Inhibition of recombinant human ALK6 (148 to end residues) assessed as residual activity at 10 uM using casein as substrate measured after 40 mins in presence of [gamma33P]ATP by scintillation counting method
[18] = test system: HT-29; experiment: Antiproliferative activity against human HT-29 cells assessed as reduction in cell viability after 72 hrs by MTT assay; type: functional, cell-based; settings: HT-29, 72 h
[19] = test system: Mast/stem cell growth factor receptor Kit (Homo sapiens), P10721 [D816H]; experiment: Inhibition of recombinant human c-Kit D816H mutant (544 to end residues) assessed as residual activity at 10 uM using GGMEDIYFEFMGGKKK as substrate measured after 40 mins in presence of [gamma33P]ATP by scintillation counting method
[20] = molecular target: Serine/threonine-protein kinase Nek2 (Homo sapiens) (UniProt P51955); experiment: Inhibition of recombinant full-length human NEK2 assessed as residual activity at 10 uM using myelin basic protein as substrate measured after 40 mins in presence of [gamma33P]ATP by scintillation counting method
[21] = test system: Epidermal growth factor receptor (Homo sapiens), P00533 [T790M]; experiment: Inhibition of recombinant human EGFR T790M mutant (696 to end residues) assessed as residual activity at 10 uM using GGMEDIYFEFMGGKKK as substrate measured after 40 mins in presence of [gamma33P]ATP by scintillation counting method
[22] = molecular target: Dual specificity tyrosine-phosphorylation-regulated kinase 2 (Homo sapiens) (UniProt Q92630); experiment: Inhibition of recombinant full-length human DYRK2 assessed as residual activity at 10 uM using casein as substrate measured after 40 mins in presence of [gamma33P]ATP by scintillation counting method
[23] = organism: Mus musculus; experiment: Inhibition of recombinant full-length mouse PI3K p110alpha/p85alpha E542K mutant assessed as residual activity at 10 uM using phosphatidylinositol-4, 5-bisphosphate as substrate measured after 40 mins by HTRF assay
[24] = molecular target: MAP kinase-activated protein kinase 3 (Homo sapiens) (UniProt Q16644); experiment: Inhibition of recombinant human MAPKAPK3 (2 to end residues) assessed as residual activity at 10 uM using KKLNRTLSVA as substrate measured after 40 mins in presence of [gamma33P]ATP by scintillation counting method
Chain of MAP kinase-activated protein kinase 3 (Homo sapiens) (Q16644 whole entry, looked up): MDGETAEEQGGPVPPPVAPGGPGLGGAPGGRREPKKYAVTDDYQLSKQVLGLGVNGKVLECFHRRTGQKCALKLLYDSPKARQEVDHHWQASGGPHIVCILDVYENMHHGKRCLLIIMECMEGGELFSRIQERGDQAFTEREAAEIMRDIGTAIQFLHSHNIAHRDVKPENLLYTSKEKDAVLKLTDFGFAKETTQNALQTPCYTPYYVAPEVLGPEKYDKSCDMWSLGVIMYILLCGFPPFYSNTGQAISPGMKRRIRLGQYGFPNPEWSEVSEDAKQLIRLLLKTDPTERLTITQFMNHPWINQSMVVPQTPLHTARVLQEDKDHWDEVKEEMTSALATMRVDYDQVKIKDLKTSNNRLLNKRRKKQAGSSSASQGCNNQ

Chain of Tribbles homolog 2 (Homo sapiens) (Q92519 whole entry): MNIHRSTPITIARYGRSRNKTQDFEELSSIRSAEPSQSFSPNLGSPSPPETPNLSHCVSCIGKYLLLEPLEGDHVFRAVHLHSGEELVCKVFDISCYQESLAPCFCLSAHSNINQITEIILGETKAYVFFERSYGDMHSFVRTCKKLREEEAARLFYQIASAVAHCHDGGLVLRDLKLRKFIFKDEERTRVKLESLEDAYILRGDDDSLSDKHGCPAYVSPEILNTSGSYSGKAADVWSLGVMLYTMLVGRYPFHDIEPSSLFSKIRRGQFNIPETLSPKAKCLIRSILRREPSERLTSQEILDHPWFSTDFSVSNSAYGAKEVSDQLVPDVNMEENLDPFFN
Chain of Tyrosine-protein kinase ZAP-70 (Homo sapiens) (P43403 whole entry): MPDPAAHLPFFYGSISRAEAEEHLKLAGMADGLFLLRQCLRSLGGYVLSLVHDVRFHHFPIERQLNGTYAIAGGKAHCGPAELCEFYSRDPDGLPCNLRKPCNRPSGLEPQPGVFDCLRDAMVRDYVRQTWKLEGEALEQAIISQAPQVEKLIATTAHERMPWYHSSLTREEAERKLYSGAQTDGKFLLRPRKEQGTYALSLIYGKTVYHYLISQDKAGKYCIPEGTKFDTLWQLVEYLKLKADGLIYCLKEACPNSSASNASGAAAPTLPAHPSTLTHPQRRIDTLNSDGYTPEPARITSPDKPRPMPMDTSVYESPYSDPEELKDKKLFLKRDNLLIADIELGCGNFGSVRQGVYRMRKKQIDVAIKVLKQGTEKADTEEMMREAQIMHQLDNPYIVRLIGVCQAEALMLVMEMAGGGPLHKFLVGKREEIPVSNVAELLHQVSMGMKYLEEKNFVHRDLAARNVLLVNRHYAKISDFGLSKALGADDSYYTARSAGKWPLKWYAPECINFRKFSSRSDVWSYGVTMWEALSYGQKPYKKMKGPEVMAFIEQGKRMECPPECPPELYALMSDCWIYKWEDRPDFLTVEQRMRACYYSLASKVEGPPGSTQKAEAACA
Chain of Dual specificity tyrosine-phosphorylation-regulated kinase 2 (Homo sapiens) (Q92630 whole entry): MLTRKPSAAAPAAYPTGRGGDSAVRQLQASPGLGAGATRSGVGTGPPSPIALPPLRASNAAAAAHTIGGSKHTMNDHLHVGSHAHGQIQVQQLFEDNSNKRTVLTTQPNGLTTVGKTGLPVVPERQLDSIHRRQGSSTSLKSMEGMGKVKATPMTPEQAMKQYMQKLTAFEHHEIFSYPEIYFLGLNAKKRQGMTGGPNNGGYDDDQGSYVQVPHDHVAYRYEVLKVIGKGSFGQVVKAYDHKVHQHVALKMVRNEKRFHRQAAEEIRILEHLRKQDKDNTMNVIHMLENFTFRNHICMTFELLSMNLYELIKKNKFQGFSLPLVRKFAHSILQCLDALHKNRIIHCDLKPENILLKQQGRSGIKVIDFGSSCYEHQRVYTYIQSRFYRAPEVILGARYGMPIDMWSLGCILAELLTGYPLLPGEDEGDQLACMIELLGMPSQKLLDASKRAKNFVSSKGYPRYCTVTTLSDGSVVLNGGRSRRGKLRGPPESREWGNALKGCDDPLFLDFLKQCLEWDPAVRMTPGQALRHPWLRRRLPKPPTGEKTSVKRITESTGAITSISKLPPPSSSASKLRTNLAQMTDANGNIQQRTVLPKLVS
Chain of Mast/stem cell growth factor receptor Kit (Homo sapiens), P10721 [D816H] (P10721 whole entry D816H): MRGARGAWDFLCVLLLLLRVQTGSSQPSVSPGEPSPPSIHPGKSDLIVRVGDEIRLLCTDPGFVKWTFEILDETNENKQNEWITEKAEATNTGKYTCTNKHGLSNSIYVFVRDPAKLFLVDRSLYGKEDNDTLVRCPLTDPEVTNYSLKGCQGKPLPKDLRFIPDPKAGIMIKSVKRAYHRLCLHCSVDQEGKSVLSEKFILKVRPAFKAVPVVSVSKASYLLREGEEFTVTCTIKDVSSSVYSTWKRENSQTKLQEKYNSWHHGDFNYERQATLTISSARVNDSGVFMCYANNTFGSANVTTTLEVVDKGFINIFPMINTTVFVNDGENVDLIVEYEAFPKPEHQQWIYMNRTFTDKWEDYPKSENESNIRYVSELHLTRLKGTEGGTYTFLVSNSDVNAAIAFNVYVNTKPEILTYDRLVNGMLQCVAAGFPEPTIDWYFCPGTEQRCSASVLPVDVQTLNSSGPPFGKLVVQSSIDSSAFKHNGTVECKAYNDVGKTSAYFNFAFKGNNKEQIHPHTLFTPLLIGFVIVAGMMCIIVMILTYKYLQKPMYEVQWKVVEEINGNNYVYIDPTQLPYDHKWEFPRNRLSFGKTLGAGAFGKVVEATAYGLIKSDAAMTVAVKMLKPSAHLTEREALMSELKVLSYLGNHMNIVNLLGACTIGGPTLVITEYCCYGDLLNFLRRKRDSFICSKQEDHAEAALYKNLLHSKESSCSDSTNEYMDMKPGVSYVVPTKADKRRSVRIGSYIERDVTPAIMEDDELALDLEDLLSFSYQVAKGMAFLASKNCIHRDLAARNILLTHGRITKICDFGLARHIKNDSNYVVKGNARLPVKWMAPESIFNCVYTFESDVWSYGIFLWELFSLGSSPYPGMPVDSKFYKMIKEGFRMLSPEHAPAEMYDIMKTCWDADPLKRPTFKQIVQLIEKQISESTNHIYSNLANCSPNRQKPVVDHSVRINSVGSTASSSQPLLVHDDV
Chain of Casein kinase I isoform delta (Homo sapiens) (P48730 whole entry, looked up, the tested form may be a part, canonical isoform): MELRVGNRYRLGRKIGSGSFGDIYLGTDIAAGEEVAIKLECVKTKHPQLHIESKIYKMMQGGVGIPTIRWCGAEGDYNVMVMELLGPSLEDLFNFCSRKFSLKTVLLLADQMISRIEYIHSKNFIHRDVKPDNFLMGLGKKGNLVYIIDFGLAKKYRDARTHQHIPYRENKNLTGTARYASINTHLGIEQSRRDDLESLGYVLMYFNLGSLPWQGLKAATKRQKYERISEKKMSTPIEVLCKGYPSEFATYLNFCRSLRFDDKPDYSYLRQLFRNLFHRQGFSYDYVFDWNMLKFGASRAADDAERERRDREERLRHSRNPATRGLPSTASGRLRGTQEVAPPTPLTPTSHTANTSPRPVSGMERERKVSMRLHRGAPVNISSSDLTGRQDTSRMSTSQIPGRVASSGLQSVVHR
Chain of CDC7/Cyclin B1 (Homo sapiens) (O00311 whole entry, looked up): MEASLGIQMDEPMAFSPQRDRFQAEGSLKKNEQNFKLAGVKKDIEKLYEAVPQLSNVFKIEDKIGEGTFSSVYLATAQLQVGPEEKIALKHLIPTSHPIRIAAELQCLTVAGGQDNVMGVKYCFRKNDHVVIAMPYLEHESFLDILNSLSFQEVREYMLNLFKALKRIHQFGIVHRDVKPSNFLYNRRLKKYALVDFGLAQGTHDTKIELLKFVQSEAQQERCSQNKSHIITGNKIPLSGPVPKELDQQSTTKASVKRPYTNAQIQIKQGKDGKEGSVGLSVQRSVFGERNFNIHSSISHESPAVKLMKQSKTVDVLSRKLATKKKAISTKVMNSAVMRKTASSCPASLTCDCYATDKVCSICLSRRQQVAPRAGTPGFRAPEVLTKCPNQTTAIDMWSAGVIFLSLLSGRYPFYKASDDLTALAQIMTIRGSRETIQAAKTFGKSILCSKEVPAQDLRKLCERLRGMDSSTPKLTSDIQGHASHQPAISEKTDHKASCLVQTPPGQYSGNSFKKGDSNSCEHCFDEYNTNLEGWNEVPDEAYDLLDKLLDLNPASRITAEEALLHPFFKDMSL
Chain of CDC7/Cyclin B1 (Homo sapiens) (P14635 whole entry, looked up): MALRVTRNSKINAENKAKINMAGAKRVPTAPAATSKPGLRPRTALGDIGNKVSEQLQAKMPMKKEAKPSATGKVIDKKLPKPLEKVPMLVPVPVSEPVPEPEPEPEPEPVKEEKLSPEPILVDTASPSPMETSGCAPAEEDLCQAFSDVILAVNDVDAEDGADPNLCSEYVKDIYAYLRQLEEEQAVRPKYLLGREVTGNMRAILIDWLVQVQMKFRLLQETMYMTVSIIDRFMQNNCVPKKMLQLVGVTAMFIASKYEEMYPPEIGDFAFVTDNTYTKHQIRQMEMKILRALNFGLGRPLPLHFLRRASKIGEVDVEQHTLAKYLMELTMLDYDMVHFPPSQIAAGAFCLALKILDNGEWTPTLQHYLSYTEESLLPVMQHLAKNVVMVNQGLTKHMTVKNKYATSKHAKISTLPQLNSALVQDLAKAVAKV
Chain of Bone morphogenetic protein receptor type-1B (Homo sapiens) (O00238 whole entry): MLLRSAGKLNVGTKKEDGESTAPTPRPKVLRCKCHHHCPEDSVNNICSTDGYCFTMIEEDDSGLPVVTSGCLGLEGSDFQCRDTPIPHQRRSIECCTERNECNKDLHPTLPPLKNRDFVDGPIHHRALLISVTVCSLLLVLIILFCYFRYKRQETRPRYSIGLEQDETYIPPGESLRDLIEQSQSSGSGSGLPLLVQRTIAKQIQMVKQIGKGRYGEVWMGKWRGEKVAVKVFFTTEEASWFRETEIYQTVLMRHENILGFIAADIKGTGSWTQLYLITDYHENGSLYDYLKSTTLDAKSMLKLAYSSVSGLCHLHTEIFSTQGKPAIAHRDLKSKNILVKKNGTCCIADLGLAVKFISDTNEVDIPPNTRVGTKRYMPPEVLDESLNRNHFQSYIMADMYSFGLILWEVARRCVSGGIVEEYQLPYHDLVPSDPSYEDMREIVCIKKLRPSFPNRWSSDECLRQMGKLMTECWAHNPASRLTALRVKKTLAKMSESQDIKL

Molecule `Cc1cc(C)c(CNc2nc(Cl)nc3c2ncn3C2CCCC2)c(=O)[nH]1` has an Activity [1] of 109%, an Activity [2] of 104% and an Activity [3] of 103%. For the same molecule, the Activity [4] was “Active”, the Activity [5] was 78.5% and the viability at 0.025 µM [6] was 95.9%. It also gave an Activity [7] of 123%, an Activity [8] of 102% and an Activity [9] of 95.5%. The Activity [10] was 90.5%, the Activity [11] was 122% and the IC50 [12] was 0.201 µM. It also gave an Activity [13] of 90.5%, an Activity [14] of 114% and an Activity [15] of 102%. The Activity [16] was “Active”, the Activity [17] was 103% and the IC50 [18] was 0.071 µM. For the same molecule, the Activity [19] was 101%, the Activity [20] was 101% and the Activity [21] was 102%. The Activity [22] was 113%, the Activity [23] was 95% and the Activity [24] was 106%.
